Data reported in EP4800004A1, “ARYLALKYLAMINE COMPOUND, AND PREPARATION METHOD THEREFOR AND USE THEREOF” (Renhe Yikang Group Co., Ltd., priority 2024, dated 2025).

Tests used:
[1] = molecular target: T1, human CaSR (Homo sapiens, UniProt P41180); assay: In vitro CaSR conformational (allosteric) activation, intracellular Ca2+ change in hCaSR-CHO cells (Fluo-4 NW, FLIPR); type: cell-based; details: change in intracellular Ca2+ fluorescence intensity
T1 construct: expressed in transfected cells
T1 sequence (P41180 20-1078): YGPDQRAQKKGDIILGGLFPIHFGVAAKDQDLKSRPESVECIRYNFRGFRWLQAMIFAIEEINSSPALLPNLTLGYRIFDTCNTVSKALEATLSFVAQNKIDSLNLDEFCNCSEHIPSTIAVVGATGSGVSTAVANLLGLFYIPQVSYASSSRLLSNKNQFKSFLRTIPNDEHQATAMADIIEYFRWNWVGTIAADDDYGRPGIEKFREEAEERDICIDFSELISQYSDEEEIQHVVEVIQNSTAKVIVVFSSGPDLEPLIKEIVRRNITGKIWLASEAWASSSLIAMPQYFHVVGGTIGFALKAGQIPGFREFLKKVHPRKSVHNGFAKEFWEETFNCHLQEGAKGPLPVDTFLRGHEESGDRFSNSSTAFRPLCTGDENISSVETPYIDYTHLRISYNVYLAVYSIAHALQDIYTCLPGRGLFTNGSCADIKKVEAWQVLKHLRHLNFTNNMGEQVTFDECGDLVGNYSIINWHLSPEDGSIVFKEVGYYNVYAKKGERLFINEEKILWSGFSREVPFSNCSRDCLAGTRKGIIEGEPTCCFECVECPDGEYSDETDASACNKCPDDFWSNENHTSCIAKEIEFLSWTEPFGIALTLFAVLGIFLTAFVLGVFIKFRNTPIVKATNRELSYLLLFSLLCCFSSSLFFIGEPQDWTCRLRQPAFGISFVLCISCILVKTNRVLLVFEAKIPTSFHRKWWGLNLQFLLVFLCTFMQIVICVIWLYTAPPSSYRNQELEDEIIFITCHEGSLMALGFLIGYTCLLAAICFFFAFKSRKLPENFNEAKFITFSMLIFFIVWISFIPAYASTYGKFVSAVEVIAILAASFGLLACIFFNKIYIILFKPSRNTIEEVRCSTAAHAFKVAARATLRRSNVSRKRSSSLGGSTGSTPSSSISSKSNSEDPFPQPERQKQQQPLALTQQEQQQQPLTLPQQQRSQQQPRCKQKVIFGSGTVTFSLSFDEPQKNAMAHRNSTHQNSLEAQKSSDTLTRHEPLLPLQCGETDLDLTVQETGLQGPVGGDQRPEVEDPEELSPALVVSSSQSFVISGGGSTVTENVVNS
Description: The CaSR is a member of family C of G protein-coupled receptors (GPCR). Upon activation by extracellular Ca^2+ or specific compounds, CaSR triggers an increase in intracellular Ca^2+ concentration. To evaluate the effect of compounds on the allosteric activation of CaSR, a CHO cell line stably transfected with human CaSR (hCaSR-CHO) was utilized. Changes in intracellular Ca^2+ concentration were measured as a key indicator to assess the conformational activation of CaSR.
• 1. Preparation Before Plate Spreading: Twelve hours prior to cell spreading, a 384-well cell culture plate was coated with 0.1 mg/mL polylysine. • 2. Cell Spreading: Digested hCaSR-CHO cells were resuspended in complete medium, counted using a cell counter, and adjusted to a density of 5 × 10^5 cells/mL. A volume of 25 µL of cell suspension was inoculated into each well. After inoculation, the cells were incubated at 37 °C in a 5% CO2 incubator for 18 h. • 3. Preparation of Compound Test Solution: The test compounds were diluted to the required concentrations (10 µM, 2 µM, 400 nM, 80 nM, 16 nM, 3.2 nM, and 0.64 nM) and added to a 384-well spiked plate. Since the cell culture plate already contained 25 µL of Fluo-4 NW assay reagent and the instrument was set to deliver 20 µL of the system, the compound concentrations in the spiked plate were 2.25 times the actual assay concentrations. For example, […]. • 4. Preparation of Assay Reagents: According to the instructions of the Fluo-4 NW Calcium Assay Kit (Thermo, F36206), 1 mL of assay buffer was added to Component B to prepare a 250 mM probenecid solution. 100 µL of the probenecid solution was added to 10 mL of assay buffer and mixed thoroughly. Component A was added to the mixture to prepare a 1X dye loading solution. • 5. Fluorescent Dye Addition: The complete culture medium was discarded, and 25 µL of the 1X dye loading solution was added to the 384-well plate using a Multidrop automatic dispenser. The plate was incubated at 37 °C for 30 min in the dark, then transferred to room temperature for an additional 30 min. The plate was transferred to the FLIPER Tetra instrument (Molecular Devices). • 6. Data Acquisition: After adding 20 µL of the compound test solution, the excitation wavelength was set to 470-495 nm, and the emission was detected at 515-575 nm. The instrument's quality control board was used to ensure no errors before initiating detection. The detection duration was 660 seconds, and the raw data were exported at the end of the reading. • 7. Data Processing: The change in fluorescence intensity, representing intracellular calcium signals, was calculated by subtracting the minimum fluorescence value (average of 14-21 seconds) from the maximum fluorescence value (average of 40-80 seconds) after compound addition. Using GraphPad Prism 8.0, the EC50 values of individual compounds were determined by plotting the compound concentration on the x-axis and the change in fluorescence intensity on the y-axis.

[2] = Pharmacokinetic study in SD rats; type: in vivo; details: Sprague-Dawley, rat, plasma, male SD rats, single dose via oral gavage; for bioavailability: relative to Evocalcet (100)
Description: Animal Information: Male Sprague-Dawley (SD) rats, aged 7-8 weeks, were used. Each group consisted of 3-5 rats.
Dosing Information: The rats were fasted for more than 12 hours prior to administration. A single dose was administered via oral gavage.
Blood Sampling Time Points: Blood samples were collected from the tail vein before administration and at 0.25, 0.5, 1, 2, 4, 6, 8, and 24 hours post-administration. A volume of 100 µL of blood was collected at each time point.
Sample Processing and Storage: The blood samples were transferred into 1.5 mL microcentrifuge tubes, with 50 µL per tube (two tubes per sample). Centrifugation was completed within 2 hours. Whole blood samples were kept on ice prior to centrifugation. Centrifugation was performed at 4000 rpm, 2-8°C, for 10 minutes. After collecting the supernatant, it was stored at -80°C or below if not analyzed immediately.
Column: An InfinityLab Poroshell 120 SB-C18 column (2.1 × 100 mm, 2.7 µm) was used. Column Temperature: The temperature was maintained at 30°C. Flow Rate: The flow rate was set at 0.3 mL/min. Run Time: The total run time was 9.5 minutes. Post-run Time: A post-run time of 2 minutes was applied. Injection Volume: An injection volume of 2 µL was used. Mobile Phase: A mixture of methanol and 0.1% formic acid was employed as the mobile phase. Gradient Elution: Gradient elution was performed according to the table below.
Blood Sample Processing: 50 µL of plasma sample was aliquoted, and 25 µL of internal standard solution was added. The mixture was vortexed for 30 seconds. Then, 175 µL of methanol was added to precipitate proteins, and the mixture was vortexed again. The samples were centrifuged at 12,000 rpm for 10 minutes. Subsequently, 100 µL of the supernatant was collected and mixed with 300 µL of water. The final supernatant was injected for analysis.

[3] = test system: parathyroid hormone (PTH); assay: In vivo inhibition of blood PTH concentration in five-sixths nephrectomy hyperparathyroidism model rats (ELISA); details: PTH reduction at 1 hour post-administration compared with baseline PTH concentration at 0 hour; single dose by oral gavage; male SD rats, five-sixths nephrectomy plus special diet
From the text: Male SD rat models of hyperparathyroidism were constructed by five-sixths nephrectomy plus a special diet. Blood parathyroid hormone (PTH) level was used as the endpoint. ELISA was applied to determine the changes in plasma PTH concentration following compound treatment, thereby assessing the in vivo activity of the compound.
• 1. Model Construction: Specific pathogen-free (SPF)-grade male SD rats aged 7-8 weeks were used. The rats were acclimatized with normal feed for 1 week. Two-thirds of the left kidney was removed, and the rats were allowed to recover with normal feed for 1 week. Subsequently, the right kidney was removed, and the rats were allowed to recover with normal feed for an additional week. The rats were then fed a special diet (0.5% calcium and 1.2% total phosphorus) for 2 weeks. • 2. Detection and Grouping: Approximately 300 µL of blood was collected from the tail vein into a coagulation-promoting tube, left at room temperature for 30 minutes, and centrifuged at 12,000 rpm for 3 minutes to obtain serum samples. The concentration of intact PTH (1-84) in the serum was detected using the MicroVue Intact PTH EIA-96 Test (Quidel, catalog No. 60-2500). The rats were grouped based on their PTH concentration levels, ensuring that the mean PTH concentration in each group was approximately the same. • 3. Administration and Activity Testing: A single dose of the compound was administered by oral gavage. Blood samples were collected before and after administration, and serum was obtained using the method described in step 2. PTH levels were measured using ELISA.

[4] = Rat liver microsome stability test; type: in vitro ADME; details: rat liver microsomes, PBS pH 7.4, 37 °C, maximum incubation time 60 minutes
Description: Rat liver microsomes at a defined concentration, testosterone (positive control), tolbutamide (internal standard), the test compounds, and PBS (pH 7.4) were incubated at 37 °C. The reaction was quenched with methanol at 0, 5, 10, 20, 30, and 60 min, respectively. The samples were pretreated and analyzed using LC-MS. Data processing involved plotting the ratio of the peak area of the test compound to that of the internal standard (y-axis) against time (x-axis). The half-life (t1/2) was calculated from the data. Table 3. Stability data of compounds in rat liver microsomes.

EC50 [1] | bioavailability [2] | AUC(0-inf) [2] | Cmax [2] | Tmax [2] | half-life [2] | half-life [4] | SMILES | The reduction efficiency (%) [3]
39.7 nM | – | – | – | – | – | – | C[C@@H](N[C@H]1CCN(c2ccc(CC(=O)O)c(F)c2)C1)c1cccc2ccccc12 [Compound 1, 2-(2-fluoro-4-((S)-3-(((R)-1-(naphthalen-1-yl)ethyl)amino)pyrrolidin-1-yl)phenyl)acetic acid] | –
27.1 nM | 136% | 34700 ± 2710 ng·h/mL | 3550 ± 283 ng/mL | 0.65 ± 0.34 h | 5.91 ± 0.21 h | > 1 h | C[C@@H](N[C@H]1CCN(c2ccc(CC(=O)O)cc2F)C1)c1cccc2ccccc12 [Compound 2, 2-(3-fluoro-4-((S)-3-(((R)-1-(naphthalen-1-yl)ethyl)amino)pyrrolidin-1-yl)phenyl)acetic acid] | 91%
20.7 nM | 144% | 36600 ± 1970 ng·h/mL | 3770 ± 584 ng/mL | 0.55 ± 0.27 h | 5.17 ± 0.38 h | > 1 h | Cc1cc(CC(=O)O)ccc1N1CC[C@H](N[C@H](C)c2cccc3ccccc23)C1 [Compound 3, 2-(3-methyl-4-((S)-3-(((R)-1-(naphthalen-1-yl)ethyl)amino)pyrrolidin-1-yl)phenyl)acetic acid] | 93%
52 nM | – | – | – | – | – | – | Cc1cc(N2CC[C@H](N[C@H](C)c3cccc4ccccc34)C2)ccc1CC(=O)O [Compound 4, 2-(2-methyl-4-((S)-3-(((R)-1-(naphthalen-1-yl)ethyl)amino)pyrrolidin-1-yl)phenyl)acetic acid] | –
39.8 nM | – | – | – | – | – | > 1 h | C[C@@H](N[C@H]1CCN(c2cc(F)c(CC(=O)O)c(F)c2)C1)c1cccc2ccccc12 [Compound 5, 2-(2,6-difluoro-4-((S)-3-(((R)-1-(naphthalen-1-yl)ethyl)amino)pyrrolidin-1-yl)phenyl)acetic acid] | 81%
42.5 nM | – | – | – | – | – | – | COc1cc(CC(=O)O)ccc1N1CC[C@H](N[C@H](C)c2cccc3ccccc23)C1 [Compound 6, 2-(3-methoxy-4-((S)-3-(((R)-1-(naphthalen-1-yl)ethyl)amino)pyrrolidin-1-yl)phenyl)acetic acid] | –
55.5 nM | – | – | – | – | – | – | COc1cc(N2CC[C@H](N[C@H](C)c3cccc4ccccc34)C2)ccc1CC(=O)O [Compound 7, 2-(2-methoxy-4-((S)-3-(((R)-1-(naphthalen-1-yl)ethyl)amino)pyrrolidin-1-yl)phenyl)acetic acid] | –
67.6 nM | 100% | 25400 ± 7360 ng·h/mL | 2520 ± 212 ng/mL | 1.15 ± 1.6 h | 4.83 ± 0.39 h | > 1 h | C[C@@H](N[C@H]1CCN(c2ccc(CC(=O)O)cc2)C1)c1cccc2ccccc12 [Evocalcet, reference compound] | –
